Columns and labels:
Progesterone receptor = settings: DeManno et al., Steroids 68 (2003); cited from earlier work
[1] = Plasma concentrations and pharmacokinetic parameters of Compounds 1 and 2 in rats after oral Compound 1; assay type: in vivo, rat; settings: for Cmax: po
Description: Under the same conditions as described in Example 2 three single dosages of Compound 1 (0.2, 1.0 and 5 mg/kg/day) were administered to rats. Blood samples were taken from the rats at several time-points (1, 2, 4, 7 and 24 h, N=3 animals at each time-point), to allow for calculation of AUC (0-24) and Cmax of compound 1 and compound 2 in rat plasma. The plasma samples were stored at −15° C. until analysis. Compound 1 and 2 were determined in plasma after protein precipitation with acetonitrile containing the internal standards for compound 1 and compound 2. The supernatant was analyzed by separation employing high-pressure liquid chromatography and tandem mass spectrometric detection. The lower limit of quantitation (LLOQ) for Compound 1 was 1.00 μg/L, the linear range between 1.00 and 200 μg/L. The lower limit of quantitation (LLOQ) for Compound 2 was 0.200 μg/L, the linear range between 0.200 and 200 μg/L. A sample volume of 0.1 mL plasma was used. The precision for Compound 1 ranged between 0.97 and 3.73%, accuracy between 99.8 and 101.3%, for Compound 2 precision ranged between 2.01 and 6.19%, accuracy between 92.3 and 96.6% calculated from the study quality control samples.

[2] = In vitro metabolism of 14C-labeled Compound 1 in human liver microsomes; assay type: in vitro ADME
Description: Human liver microsomes were incubated with (3α,11β,17β)-11-[4-(^14C-methylsulfonyl)phenyl]-17-(pentafluoroethyl)estra-4,9-diene-3,17-diol (Compound 1).
(§1) The incubation mixture containing buffer, reconstituting system and microsomal protein was preincubated at 37° C. for 3 min. Incubation was started by the addition of the solution containing (3α,11β,17β)-11-[4-(methylsulfonyl)phenyl]-17-(pentafluoroethyl)estra-4,9-diene-3,17-diol (Compound 1). The samples were incubated at 37° C. in a continuously operating shaking water bath. The incubation reaction was stopped by the addition of 160 μL acetonitrile. The stopped incubations were centrifuged for 10 minutes at 13000 rpm (4° C.) and stored at −18° C. until they were subsequently analysed. 50 μL of the supernatant was examined by chromatography and detected by radiometry and mass spectrometry.

recombinant human CYP3A4 = recombinant human CYP3A4 (Homo sapiens, UniProt P08684); experiment: In vitro metabolism of 14C-labeled Compound 1 in recombinant human CYP3A4 enzyme; assay type: in vitro ADME
Description: Recombinant human CYP3A4 was incubated with (3α,11β,17β)-11-[4-(^14C-methylsulfonyl)phenyl]-17-(pentafluoroethyl)estra-4,9-diene-3,17-diol (Compound 1).
The incubation mixture containing buffer, reconstituting system and CYP3A4 protein was prepared and given into a 37° C. shaking water bath. Incubation was started by the addition of the solution containing (3α,11β,17β)-11-[4-(methylsulfonyl)phenyl]-17-(pentafluoroethyl)estra-4,9-diene-3,17-diol (Compound 1). The samples were incubated at 37° C. in a continuously operating shaking water bath. 200 μL of the incubation mixture were removed after incubation time and the reaction was stopped by the addition of 120 μL acetonitrile on an ice bath. The stopped incubations were centrifuged for 10 minutes at 12000 rpm (7° C.). After removing of the supernatant from the protein pellet the supernatant was stored at −20° C. until they were subsequently analysed. 50 μL of the supernatants was examined by chromatography and detected by radiometry and mass spectrometry.

[3] = biological target: T1, human progesterone receptor B (Homo sapiens, UniProt P06401); experiment: PR-B transactivation assay in SK-N-MC cells (method as described in WO2011/009531); assay type: cell-based
T1 construct: expressed in transfected cells; host or cells: SK-N-MC (human neuroblastoma cells), stably transfected
T1 sequence (P06401 1-933): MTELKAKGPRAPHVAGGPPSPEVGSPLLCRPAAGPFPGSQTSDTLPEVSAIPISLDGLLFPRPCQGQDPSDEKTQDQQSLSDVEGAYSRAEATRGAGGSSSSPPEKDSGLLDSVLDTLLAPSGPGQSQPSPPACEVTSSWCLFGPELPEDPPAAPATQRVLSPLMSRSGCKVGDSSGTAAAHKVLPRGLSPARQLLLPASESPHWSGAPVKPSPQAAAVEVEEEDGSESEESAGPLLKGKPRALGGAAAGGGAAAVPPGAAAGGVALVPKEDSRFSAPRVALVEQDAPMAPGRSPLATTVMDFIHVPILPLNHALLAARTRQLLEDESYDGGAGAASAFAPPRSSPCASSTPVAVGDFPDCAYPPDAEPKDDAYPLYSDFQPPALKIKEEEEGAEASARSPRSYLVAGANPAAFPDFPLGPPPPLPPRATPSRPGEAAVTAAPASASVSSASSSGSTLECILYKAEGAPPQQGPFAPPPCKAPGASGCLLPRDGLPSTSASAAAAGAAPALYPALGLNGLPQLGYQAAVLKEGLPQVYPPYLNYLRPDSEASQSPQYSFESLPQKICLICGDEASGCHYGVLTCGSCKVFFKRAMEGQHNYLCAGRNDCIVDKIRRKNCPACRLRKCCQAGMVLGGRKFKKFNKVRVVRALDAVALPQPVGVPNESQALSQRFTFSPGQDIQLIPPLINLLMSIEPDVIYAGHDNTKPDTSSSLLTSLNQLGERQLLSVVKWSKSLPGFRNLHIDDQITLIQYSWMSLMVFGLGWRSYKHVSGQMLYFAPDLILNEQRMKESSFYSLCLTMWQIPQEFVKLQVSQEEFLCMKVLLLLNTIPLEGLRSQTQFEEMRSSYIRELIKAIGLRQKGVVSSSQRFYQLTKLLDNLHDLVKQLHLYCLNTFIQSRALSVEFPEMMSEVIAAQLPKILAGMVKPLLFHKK
Description: (§2) SK-N-MC cells (human neuroblastoma cells), which have been stably transfected with plasmids, which express the human progesterone receptor B ([…]) or the human progesterone receptor A (pRChPR-A-neo) and a reporter construct (pMMTV-LUC), were incubated for 24 hours either in the absence (negative control) or in the presence of increasing amounts of the respective Compound 2 (0.01 nmol/l, 0.1 nmol/l, 1 nmol/l, 10 nmol/l, 100 nmol/land […]), in order to determine the agonistic efficacy. As positive control of reporter gene induction, the cells were treated with the synthetic gestagen promegestone (0.01 nmol/l, 0.1 nmol/l, 1 nmol/l, 10 nmol/l, 100 nmol/l and […]). For determination of the antagonistic activity, the cells were treated with 0.1 nmol/l promegestone and additionally with increasing amounts of the respective test compound (0.01 nmol/l, 0.1 nmol/l, 1 nmol/l, 10 nmol/l, 100 nmol/l and […]). The activity of the LUC reporter gene (LUC=luciferase) was determined in the cell lysates and was measured as RLU (relative light units).

[4] = biological target: T2, human progesterone receptor A (Homo sapiens, UniProt P06401); experiment: PR-A transactivation assay in SK-N-MC cells (method as described in WO2011/009531); assay type: cell-based
T2 construct: expressed in transfected cells; host or cells: SK-N-MC (human neuroblastoma cells), stably transfected
T2 sequence (P06401 1-769 isoform P06401-2): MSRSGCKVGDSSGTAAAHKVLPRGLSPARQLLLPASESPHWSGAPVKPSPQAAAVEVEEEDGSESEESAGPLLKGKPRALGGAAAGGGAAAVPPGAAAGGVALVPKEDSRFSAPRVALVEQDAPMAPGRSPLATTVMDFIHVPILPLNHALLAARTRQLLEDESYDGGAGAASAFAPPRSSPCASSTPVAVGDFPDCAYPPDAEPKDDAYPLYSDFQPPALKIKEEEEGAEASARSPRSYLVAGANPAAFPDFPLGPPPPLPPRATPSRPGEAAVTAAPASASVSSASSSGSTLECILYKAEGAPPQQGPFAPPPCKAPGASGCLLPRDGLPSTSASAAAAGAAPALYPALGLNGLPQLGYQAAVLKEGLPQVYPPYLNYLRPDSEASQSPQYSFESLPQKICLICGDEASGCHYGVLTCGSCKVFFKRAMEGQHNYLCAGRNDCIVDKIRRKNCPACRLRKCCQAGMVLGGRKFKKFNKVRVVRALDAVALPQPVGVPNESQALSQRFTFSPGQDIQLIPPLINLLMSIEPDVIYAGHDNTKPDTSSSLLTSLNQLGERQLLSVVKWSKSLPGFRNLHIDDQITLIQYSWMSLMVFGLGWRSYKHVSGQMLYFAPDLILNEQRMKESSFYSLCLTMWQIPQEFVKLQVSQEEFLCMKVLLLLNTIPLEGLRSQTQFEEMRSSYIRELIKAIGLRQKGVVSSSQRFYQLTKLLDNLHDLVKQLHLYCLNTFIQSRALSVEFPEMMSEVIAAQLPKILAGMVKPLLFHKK
Description: as §2

[5] = In vitro metabolism of 14C-labeled Compound 2 in human liver cytosol; assay type: in vitro ADME
Description: Human liver cytosol was incubated with (11β,17β)-17-Hydroxy-11-[4-(methylsulphonyl)phenyl]-17-(pentafluoroethyl)estra-4,9-dien-3-one (Compound 2).
as §1, with “and cytosolic” for “and microsomal”, “containing (11β,17β)-17-Hydroxy-11-[4-(methylsulphonyl)phenyl]-17-(pentafluoroethyl)estra-4,9-dien-3-one” for “containing (3α,11β,17β)-11-[4-(methylsulfonyl)phenyl]-17-(pentafluoroethyl)estra-4,9-diene-3,17-diol”, “(Compound 2).” for “(Compound 1).”, “bath. 250 μL of the” for “bath. The”, “incubation mixture” for “incubation reaction”, “of 100” for “of 160”

[6] = Plasma concentrations of Compound 3 and its metabolite Compound 2 in rats; assay type: in vivo, rat
Description: Under the same conditions as described in Example 3, Compound 3 (5 mg/kg/day) was administered to female rats at a dose of 5 mg/kg. Blood samples were taken from the rats at several time-points (0.5, 1, 3, 6 h, N=3 animals at each time-point), to allow for calculation of AUC (0-inf) of compound 3 and compound 2 in rat plasma.
The plasma samples were stored at −15° C. until analysis. Compound 3 and compound 2 were determined in plasma after protein precipitation with acetonitrile containing the internal standards for compound 3 and compound 2. The supernatant was analyzed by separation employing high-pressure liquid chromatography and tandem mass spectrometric detection. AUC (0-inf) means Area Under the plasma Concentration vs. time curve (0-inf) from zero to infinity.

[7] = rat plasma, single p.o. dose of Compound 1, 0.2 mg/kg

Chain of recombinant human CYP3A4 (P08684 whole entry): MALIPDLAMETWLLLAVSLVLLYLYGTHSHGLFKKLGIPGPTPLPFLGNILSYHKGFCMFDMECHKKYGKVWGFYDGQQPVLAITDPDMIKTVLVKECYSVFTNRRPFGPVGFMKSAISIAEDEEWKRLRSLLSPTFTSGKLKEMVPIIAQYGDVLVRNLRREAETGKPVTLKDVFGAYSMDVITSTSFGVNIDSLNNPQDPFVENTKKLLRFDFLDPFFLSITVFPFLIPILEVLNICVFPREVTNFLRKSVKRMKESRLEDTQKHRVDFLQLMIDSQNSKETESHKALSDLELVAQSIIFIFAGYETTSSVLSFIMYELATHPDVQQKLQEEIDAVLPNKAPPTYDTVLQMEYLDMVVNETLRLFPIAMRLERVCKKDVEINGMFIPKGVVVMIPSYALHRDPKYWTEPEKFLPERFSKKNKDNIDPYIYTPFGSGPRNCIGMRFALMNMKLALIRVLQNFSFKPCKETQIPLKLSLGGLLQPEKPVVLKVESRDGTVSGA

COC[C@]1(OC)CC[C@H]2[C@@H]3CCC4=CC(=O)CCC4=C3[C@@H](c3ccc(/C=N/O)cc3)C[C@@]21C [Asoprisnil (J867), Asoprisnil]
Progesterone binding affinity, Relative molar Binding Affinity (RBA) (Progesterone receptor): about 299 % RBA

C[C@]12C[C@H](c3ccc(S(C)(=O)=O)cc3)C3=C4CC[C@@H](O)C=C4CC[C@H]3[C@@H]1CC[C@@]2(O)C(F)(F)C(F)(F)F [Compound 1, (3α,11β,17β)-11-[4-(methylsulfonyl)phenyl]-17-(pentafluoroethyl)estra-4,9-diene-3,17-diol]
conversion into Compound 2 in rat ([1]; after oral Compound 1): almost completely converted
Cmax [1, 7]: < 1 ng/mL
Cmax ([1]; rat plasma, single p.o. dose of Compound 1, 1.0 mg/kg): 3.36 ng/mL
Cmax ([1]; rat plasma, single p.o. dose of Compound 1, 5.0 mg/kg): 12.9 ng/mL
Compound 1 Cmax [1, 7]: <1.00 ng/mL
maximum concentration of remaining compound 1 in rat plasma ([1]; single oral dose of Compound 1, 5.0 mg/kg): 12.9 µg/L
proportion of Compound 1 compared to 0 hr sample ([2]; 1 μM, 0.5 mg/mL protein, after 1 hours incubation): marked decrease
Compound 2 formed in the incubation sample ([2]; incubation of 1 μM Compound 1, after 1 hour): large quantity
proportion of Compound 1 compared to 0 hr sample (recombinant human CYP3A4; after 0.5 and 2 hours incubation with rhCYP3A4): marked decrease
Compound 2 formed in the incubation sample (recombinant human CYP3A4; incubation of Compound 1 with rhCYP3A4): large quantity
amount of compound 2 in the incubation sample (recombinant human CYP3A4; incubation of Compound 1 with rhCYP3A4, after 120 min): decreased remarkably
Compound 1 (% of 14C-radioactivity) (recombinant human CYP3A4; incubation time with rhCYP3A4 0 h): 82%
Compound 1 (% of 14C-radioactivity) (recombinant human CYP3A4; incubation time with rhCYP3A4 0.5 h): 52%
Compound 1 (% of 14C-radioactivity) (recombinant human CYP3A4; incubation time with rhCYP3A4 2 h): 2.7%

C[C@]12C[C@H](c3ccc(S(C)(=O)=O)cc3)C3=C4CCC(=O)C=C4CC[C@H]3[C@@H]1CC[C@@]2(O)C(F)(F)C(F)(F)F [Compound 2, (11β,17β)-17-Hydroxy-11-[4-(methylsulphonyl)phenyl]-17-(pentafluoroethyl)estra-4,9-dien-3-one]
agonistic activity on PR-B [3]: no agonistic activity
antagonism on PR-B [3]: very strong antagonist
agonistic activity on PR-A [4]: no agonistic activity
antagonism on PR-A [4]: very strong antagonist
proportion of Compound 2 compared to 0 hr sample ([5]; 10 μM, 1.0 mg/mL cytosolic protein, NADPH, after 1 and 4 hours): marked decrease
turnover of Compound 2 to Compound 1 in liver cytosol ([5]; absence of NADPH generating system as well as presence of NAD co-factor): No turnover
Compound 1 formed in the incubation sample ([5]; incubation of 10 μM Compound 2, after 1 and 4 hours): significant quantity

C[C@]12C[C@H](c3ccc([S@](C)(=N)=O)cc3)C3=C4CCC(=O)C=C4CCC3C1CC[C@@]2(O)C(F)(F)C(F)(F)F (stereo partly drawn) [Compound 3, (11β,17β)-17-hydroxy-11-[4-(RS-methylsulphonimidoyl)phenyl]-17-(pentafluoroethyl)estra-4,9-dien-3-one]
conversion into Compound 2 in rat ([6]; after oral Compound 3): partially converted
AUC(0-inf) ([6]; po, rat plasma, single p.o. 5 mg/kg of Compound 3, female rats): 1240 ng·h/mL

COC[C@]1(OC)CC[C@H]2[C@@H]3CCC4=CC(=O)CCC4=C3[C@@H](c3ccc(/C=N/O)cc3)C[C@@]21C [Compound J912]
Progesterone binding affinity, Relative molar Binding Affinity (RBA) (Progesterone receptor): about 165 % RBA

Reference: patent US10894805B2, “Prodrugs of the selective progesterone receptor modulator (SPRM) (11β,17β)-17-Hydroxy-11-[4-(methylsulphonyl)phenyl] -17-(pentafluoroethyl)estra-4,9-dien-3-one” (BAYER PHARMA AKTIENGESELLSCHAFT, priority 2016, dated 2021)
